Source: patent EP4603105A1, “PHARMACEUTICAL COMPOSITION CONTAINING CYCLIC COMPOUND HAVING SELECTIVE KRAS INHIBITORY EFFECT AGAINST HRAS AND NRAS” (CHUGAI SEIYAKU KABUSHIKI KAISHA, priority 2022, dated 2024)
pIC50: −log10 of the molar value. Where a SMILES comes first, the peptide text is derived from it. Bridges are numbered along the chain shown (N, C = ends). [ ]: non-standard residue; d: D form. The star is where a group is joined. hPhe(3-Cl-4-CF3) = N[C@@H](CCc1ccc(C(F)(F)F)c(Cl)c1)C(=O)O; NPrPhe(4-CF3) = CCCN[C@@H](Cc1ccc(C(F)(F)F)cc1)C(=O)O; NMePhe(4-CF3) = CN[C@@H](Cc1ccc(C(F)(F)F)cc1)C(=O)O; NMeGly(cPent) = CN[C@H](C(=O)O)C1CCCC1; Hyp = O=C(O)[C@@H]1C[C@@H](O)CN1; NMeD = CN[C@@H](CC(=O)O)C(=O)O; NMeL = CN[C@@H](CC(C)C)C(=O)O; Morpholide = C1CN(*)CCO1; NMeA = CN[C@@H](C)C(=O)O; Ac5c = NC1(C(=O)O)CCCC1; Aze = O=C(O)[C@@H]1CCN1; Ac4c = NC1(C(=O)O)CCC1; Sar = CNCC(=O)O

Experiments:
[1] = biological target: GDP-bound NRAS wild-type protein (Homo sapiens, UniProt P01111); test: Binding to NRAS by surface plasmon resonance (SPR), KD and KD ratio to KRAS
GDP-bound NRAS wild-type protein, sequence (P01111 whole entry): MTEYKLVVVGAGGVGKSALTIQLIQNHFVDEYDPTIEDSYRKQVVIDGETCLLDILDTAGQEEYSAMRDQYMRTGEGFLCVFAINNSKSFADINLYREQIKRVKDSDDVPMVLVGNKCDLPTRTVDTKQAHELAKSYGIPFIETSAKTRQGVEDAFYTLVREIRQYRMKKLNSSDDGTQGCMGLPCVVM
Summary of the method: (§1)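 Biotinylated GDP-bound RAS was captured at about 100–300 RU. Running buffer: HBS pH 7.4, 10 mM MgCl2, 10 µM GDP, 1 mM DTT, 0.01% Tween 20, 4% DMSO.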

HRAS wild-type protein = HRAS wild-type protein (Homo sapiens, UniProt P01112); test: Binding to HRAS by surface plasmon resonance (SPR), KD and KD ratio to KRAS
HRAS wild-type protein, sequence (P01112 whole entry): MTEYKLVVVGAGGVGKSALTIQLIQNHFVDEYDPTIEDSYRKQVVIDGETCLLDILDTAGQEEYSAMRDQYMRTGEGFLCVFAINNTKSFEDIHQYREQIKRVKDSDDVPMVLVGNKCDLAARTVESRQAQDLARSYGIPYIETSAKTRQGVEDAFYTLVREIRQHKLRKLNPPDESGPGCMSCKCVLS
Summary of the method: as §1

[2] = test system: human lung cancer strain NCI-H441; type: cell-based
Summary of the method: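 Step one: dispense the test compound in serial DMSO dilutions. Step three: add the reagent and measure […].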

[3] = ratio of the KD value with respect to GDP-bound NRAS wild-type protein to the KD value with respect to KRAS
[4] = ratio of the KD value with respect to HRAS wild-type protein to the KD value with respect to KRAS
[5] = ratio of KD for GDP-bound NRAS wild-type protein to KD for KRAS
[6] = ratio of KD for HRAS wild-type protein to KD for KRAS

`CCC[C@H]1C(=O)N[C@@H]([C@@H](C)CC)C(=O)N(C2CC2)CC(=O)N(C)[C@H]2C/C=C\CCN(C2=O)[C@@H](Cc2ccc(C(F)(F)F)cc2)C(=O)N(C)CC(=O)N[C@@H](CCc2ccc(C(F)(F)F)c(OC)c2)C(=O)N2C[C@H](OCC)C[C@H]2C(=O)NC2(CC(C)(C)C2)C(=O)N(C)[C@@H](C2CCCC2)C(=O)N(C)[C@H](C(=O)N(C)C)CC(=O)N1C` [PP2105] was tested, and the “NRAS /KRAS” value [1, 3] was “A (a compound having 10 or more and less than 20 is denoted as A)”, the “HRAS /KRAS” value (HRAS wild-type protein; [4]) was “A (a compound having 10 or more and less than 20 is denoted as A)” and the pIC50 [2] was 7.98.

With `CCO[C@@H]1C[C@H]2C(=O)NC3(CCC3)C(=O)N(C)[C@@H](C(C)(C)C)C(=O)N(C)[C@H](C(=O)N3CCOCC3)CC(=O)N(C)[C@@H](CC(C)C)C(=O)N[C@@H]([C@@H](C)CC)C(=O)N(C)CC(=O)N(C)[C@H]3CCCCN(C3=O)[C@@H](Cc3ccc(C(F)(F)F)cc3)C(=O)N(C)CC(=O)N[C@@H](CCc3cc(F)c(C(F)(F)F)c(F)c3)C(=O)N2C1` [PP0814] the “NRAS /KRAS” value [1, 5] was “B (a compound having 3 or more and less than 10 is denoted as B)”, the “HRAS /KRAS” value (HRAS wild-type protein; [6]) was “B (a compound having 3 or more and less than 10 is denoted as B)” and the pIC50 [2] was 7.71.

For `CCC[C@H]1C(=O)N[C@@H]([C@@H](C)CC)C(=O)N(C)CC(=O)N(C)[C@H]2C/C=C\CCN(C2=O)[C@@H](Cc2ccc(C(F)(F)F)cc2)C(=O)N(C)CC(=O)N[C@@H](CCc2ccc(C(F)(F)F)c(Cl)c2)C(=O)N2C[C@H](OCC)C[C@H]2C(=O)NC2(CC(C)(C)C2)C(=O)N(C)[C@@H](CC(C)C)C(=O)N(C)[C@H](C(=O)N(C)C)CC(=O)N1C` [PP2977], the “NRAS /KRAS” value [1, 5] was “A (a compound having 10 or more and less than 20 is denoted as A)”, the “HRAS /KRAS” value (HRAS wild-type protein; [6]) was “A (a compound having 10 or more and less than 20 is denoted as A)” and the pIC50 [2] was 8.09.

`CCO[C@@H]1C[C@H]2C(=O)NC3(CC(C)(C)C3)C(=O)N(C)[C@@H](C(CC)CC)C(=O)N(C)[C@H](C(=O)N(C)C)CC(=O)N(C)[C@@H](COC)C(=O)N[C@@H]([C@@H](C)CC)C(=O)N(C)CC(=O)N(C)[C@H]3C/C=C\CCN(C3=O)[C@@H](Cc3ccc(C(F)(F)F)cc3)C(=O)N(C)CC(=O)N[C@@H](CCc3cc(F)c(C(F)(F)F)c(F)c3)C(=O)N2C1` [PP2121] was tested, and the “NRAS /KRAS” value [1, 3] was “AA (a compound having 20 or more is denoted as AA)”, the “HRAS /KRAS” value (HRAS wild-type protein; [4]) was “A (a compound having 10 or more and less than 20 is denoted as A)” and the pIC50 [2] was 7.94.

`CCO[C@@H]1C[C@H]2C(=O)NC3(CCC3)C(=O)N(C)[C@@H](C3CCCC3)C(=O)N(CCc3ccccc3)[C@H](C(=O)N(C)C)CC(=O)N(C)[C@@H](CC)C(=O)N[C@@H]([C@@H](C)CC)C(=O)N(C)CC(=O)N(C)[C@H]3CCCCCN(C3=O)[C@@H](Cc3ccc(C(F)(F)F)cc3)C(=O)N(C)CC(=O)N[C@@H](CCc3cc(F)c(C(F)(F)F)c(F)c3)C(=O)N2C1` [PP0637] was tested, and the “NRAS /KRAS” value [1, 3] was “B (a compound having 3 or more and less than 10 is denoted as B)”, the “HRAS /KRAS” value (HRAS wild-type protein; [4]) was “B (a compound having 3 or more and less than 10 is denoted as B)” and the pIC50 [2] was 6.02.

With `CCCN1C(=O)[C@@H]2CCN2C(=O)[C@H](C)N(C)C(=O)[C@H]([C@@H](C)CC)NC(=O)[C@H](CC(C)C)N(C)C(=O)C[C@@H](C(=O)N(C)C)NC(=O)[C@H](C2CCCC2)N(C)C(=O)C2(CCC2)NC(=O)[C@@H]2C[C@@H](OCC)CN2C(=O)[C@H](CCc2ccc(C(F)(F)F)c(Cl)c2)NC(=O)CN(C)C(=O)[C@@H]1Cc1ccc(C(F)(F)F)cc1` [PP0384] ([NMeL]I[NMeA][Aze][NPrPhe(4-CF3)][Sar][hPhe(3-Cl-4-CF3)][Hyp](Et)[Ac4c][NMeGly(cPent)]D-NMe2; lactam N-11) the “NRAS /KRAS” value [1, 5] was “C (A compound having a KD ratio of 0.1 or more and less than 3 is denoted as C)”, the “HRAS /KRAS” value (HRAS wild-type protein; [6]) was “B (a compound having 3 or more and less than 10 is denoted as B)” and the pIC50 [2] was 8.15.

With `CCCOC[C@H]1C(=O)N[C@@H]([C@@H](C)CC)C(=O)N(C)CC(=O)N(C)[C@H]2C/C=C\CCN(C2=O)[C@@H](Cc2ccc(C(F)(F)F)cc2)C(=O)N(C)CC(=O)N[C@@H](CCc2cc(F)c(C(F)(F)F)c(F)c2)C(=O)N2C[C@H](F)C[C@H]2C(=O)NC2(CC(C)(C)C2)C(=O)N(C)[C@@H](C2CCCC2)C(=O)N(C)[C@H](C(=O)N(C)CC)CC(=O)N1C` [PP1697] the “NRAS /KRAS” value ([1]; ratio of KD value for GDP-bound NRAS wild-type protein to KD value for KRAS (SPR)) was “A (a compound having 10 or more and less than 20 is denoted as A)”, the “HRAS /KRAS” value (HRAS wild-type protein; ratio of KD value for HRAS wild-type protein to KD value for KRAS (SPR)) was “A (a compound having 10 or more and less than 20 is denoted as A)” and the pIC50 [2] was 8.44.

`CCO[C@@H]1C[C@H]2C(=O)NC3(CC(C)(C)C3)C(=O)N(C)[C@@H](C(CC)CC)C(=O)N(C)[C@H](C(=O)N(C)C)CC(=O)N(C)[C@@H](COC)C(=O)N[C@@H]([C@@H](C)CC)C(=O)N(C)CC(=O)N(C)[C@H]3C/C=C\CCN(C3=O)[C@@H](Cc3ccc(C(F)(F)F)cc3)C(=O)N(C)CC(=O)N[C@@H](CCc3ccc(C(F)(F)F)c(OC)c3)C(=O)N2C1` [PP2157] was tested, and the “NRAS /KRAS” value [1, 3] was “A (a compound having 10 or more and less than 20 is denoted as A)”, the “HRAS /KRAS” value (HRAS wild-type protein; [4]) was “A (a compound having 10 or more and less than 20 is denoted as A)” and the pIC50 [2] was 8.23.

In the case of `CC[C@H](C)[C@@H]1NC(=O)[C@H](CC(C)C)N(C)C(=O)C[C@@H](C(=O)N2CCOCC2)N(C)C(=O)[C@H](C2CCCC2)N(C)C(=O)C2(CCCC2)NC(=O)[C@@H]2CCCN2C(=O)[C@H](CCc2ccc(C(F)(F)F)c(Cl)c2)NC(=O)CN(C)C(=O)[C@H](Cc2ccc(C(F)(F)F)cc2)N(C)C(=O)CN(C)C(=O)CN(C)C1=O` [PP0076] ([NMeL]I[Sar][Sar][NMePhe(4-CF3)][Sar][hPhe(3-Cl-4-CF3)]P[Ac5c][NMeGly(cPent)][NMeD]-Morpholide; lactam N-11), the “NRAS /KRAS” value [1, 5] was “C (A compound having a KD ratio of 0.1 or more and less than 3 is denoted as C)”, the “HRAS /KRAS” value (HRAS wild-type protein; [6]) was “C (A compound having a KD ratio of 0.1 or more and less than 3 is denoted as C)” and the pIC50 [2] was 7.96.

In the case of `CCC[C@H]1C(=O)N[C@@H]([C@@H](C)CC)C(=O)N(C)CC(=O)N(C)[C@H]2C/C=C\CCN(C2=O)[C@@H](Cc2ccc(C(F)(F)F)cc2)C(=O)N(C)CC(=O)N[C@@H](CCc2ccc3c(C)c(C)n(C)c3c2)C(=O)N2C[C@H](OCC)C[C@H]2C(=O)NC2(CC(C)(C)C2)C(=O)N(C)[C@@H](C2CCCC2)C(=O)N(C)[C@H](C(=O)N(C)C)CC(=O)N1C` [PP2893], the “NRAS /KRAS” value [1, 5] was “A (a compound having 10 or more and less than 20 is denoted as A)”, the “HRAS /KRAS” value (HRAS wild-type protein; [6]) was “A (a compound having 10 or more and less than 20 is denoted as A)” and the pIC50 [2] was 7.14.

In the case of `CCCN1CC(=O)N(C)[C@H]2C/C=C\CCN(C2=O)[C@@H](Cc2ccc(C)cc2)C(=O)N(C)CC(=O)N[C@@H](CCc2ccc(C(F)(F)F)c(OC)c2)C(=O)N2C[C@H](OCC)C[C@H]2C(=O)NC2(CC(C)(C)C2)C(=O)N(C)[C@@H](C2CCCC2)C(=O)N(C)[C@H](C(=O)N(C)C)CC(=O)N(C)[C@@H](CC)C(=O)N[C@@H]([C@@H](C)CC)C1=O` [PP2096], the “NRAS /KRAS” value [1, 3] was “A (a compound having 10 or more and less than 20 is denoted as A)”, the “HRAS /KRAS” value (HRAS wild-type protein; [4]) was “A (a compound having 10 or more and less than 20 is denoted as A)” and the pIC50 [2] was 7.97.

For `CC[C@H](C)[C@@H]1NC(=O)[C@H](CC(C)C)N(C)C(=O)C[C@@H](C(=O)N2CCOCC2)N(C)C(=O)[C@H](C2CCCC2)N(CC)C(=O)C2(CCCC2)NC(=O)[C@@H]2CCCN2C(=O)[C@H](CCc2cc(F)c(C(F)(F)F)c(F)c2)NC(=O)CN(C)C(=O)[C@H](Cc2ccc(C(F)(F)F)cc2)N2CCCC[C@@H](C2=O)N(C)C(=O)CN(C)C1=O` [PP0538], the “NRAS /KRAS” value [1, 3] was “B (a compound having 3 or more and less than 10 is denoted as B)”, the “HRAS /KRAS” value (HRAS wild-type protein; [4]) was “B (a compound having 3 or more and less than 10 is denoted as B)” and the pIC50 [2] was 7.11.

`CC[C@H](C)[C@@H]1NC(=O)[C@H](CC(C)C)N(C)C(=O)C[C@@H](C(=O)N2CCOCC2)N(C)C(=O)[C@H](C2CCCC2)NC(=O)C2(CCCC2)NC(=O)[C@@H]2CCCN2C(=O)[C@H](CCc2cc(F)c(C(F)(F)F)c(F)c2)NC(=O)CN(C)C(=O)[C@H](Cc2ccc(C(F)(F)F)cc2)N2CCCC[C@@H](C2=O)N(C)C(=O)CN(C)C1=O` [PP0540] was tested, and the “NRAS /KRAS” value [1, 3] was “B (a compound having 3 or more and less than 10 is denoted as B)”, the “HRAS /KRAS” value (HRAS wild-type protein; [4]) was “B (a compound having 3 or more and less than 10 is denoted as B)” and the pIC50 [2] was 6.12.

With `CC[C@H](C)[C@@H]1NC(=O)[C@H](C(C)C)N(C)C(=O)C[C@@H](C(=O)N(C)CC)N(C)C(=O)[C@H](C2CCCC2)N(C)C(=O)C2(CC(C)(C)C2)NC(=O)[C@@H]2C[C@H](C)CN2C(=O)[C@H](CCc2ccc(C(F)(F)F)c(OC)c2)NC(=O)CN(C)C(=O)[C@H](Cc2ccc(C(F)(F)F)cc2)N2CC/C=C\C[C@@H](C2=O)N(C)C(=O)CN(C)C1=O` [PP2003] the “NRAS /KRAS” value [1, 3] was “A (a compound having 10 or more and less than 20 is denoted as A)”, the “HRAS /KRAS” value (HRAS wild-type protein; [4]) was “B (a compound having 3 or more and less than 10 is denoted as B)” and the pIC50 [2] was 7.95.
